Experimental data from EP1923473B1, “Bis-diglycolamides (BISDGA) as new extractants for lanthanides [Ln(III)] and actinides [An(III)] from aqueous high-level wastes” (Universidad Autónoma de Madrid, priority 2006, dated 2008).

What was measured:
Assay type in all cases: physicochemical
[1] = Radiolytic stability, extraction capability after irradiation; settings: for DEu / DAm: after 1000 kGy
Protocol: The tests of stability against irradiation were carried out in the NAYADE facility at CIEMAT site, with external ^60Co sources with an approximate activity of 5000 Ci, with a homogeneous irradiation flux. The dose rate applied in all the experiments was 4 kGy/h and integrated doses of 250 kGy, 500 kGy, 750 kGy and 1000 kGy were considered. The irradiation device consists of a metal cylinder which is introduced in a rack wherein the ^60CO sources are placed radially, such that the irradiation is homogeneous. The irradiation process is carried out submersing the device in a pool of water with a depth of 4 meters.
Irradiation tests of the solid compound (in the absence of solvent) and of the compound dissolved in the "n-dodecane/1-octanol (95:5)%vol" mixture, equilibrated with 3 mol/L nitric acid, were carried out. The organic solutions were prepared and equilibrated as detailed in the previous sections A) and B).
Once each programmed integrated dose was reached, the extraction capability of the organic samples was evaluated as detailed in section C).
The irradiation of compound 4 in solid form (in the absence of solvent) and dissolved at a 0.1 mol/L concentration in the "n-dodecane/1-octanol 1 (95:5)%vol" mixture, equilibrated with 3 mol/L nitric acid, was carried out. The applied dose rate was 4 kGy/h and the considered integrated doses were 250 kGy, 500 kGy, 750 kGy and 1000 kGy. After each integrated dose, the extraction capability of Am(III) and Eu(III) was evaluated as described in section C.
The considered integrated doses in this experiment were 500 kGy and 1000 kGy at a dose rate of 4 kGy/h.

[2] = Extraction capability from aqueous 3 mol/L nitric acid; settings: 0.1 mol/L in TPH/1-octanol (50:50)%vol; aqueous [HNO3] 3 mol/L spiked with 152Eu(III) and 241Am(III)
Protocol: The organic solutions of the extractant compounds to be tested were prepared dissolving an amount of the extractant compound in the solvent considered in each case to reach the ligand concentration of 0.1 mol/L. The solvents considered were 1-octanol, n-heptane, n-dodecane, the industrial solvent "TPH" (hydrogenated tetrapropylene) used in the "La Hague" reprocessing plant of the COGEMA company (Compagnie générale des matières nucléaires) and different mixtures "TPH/1-octanol or n-dodecane/1-octanol".
Once said solution was obtained, its equilibration was carried out. To that end, 800 µL of the organic solution of the compound to be studied were contacted with 800 µL of nitric acid of 3 mol/L concentration and it was stirred vigorously in an oscillating shaker for 5 minutes. The phases were separated by centrifugation at 5000 rpm. 800 µL of the said organic phase were again contacted with 800 µL of nitric acid of 3 mol/L concentration for another 5 minutes of vigorous shaking. The phases were separated by centrifugation, the organic phase being considered to be equilibrated.
(§1) 600 µL of the organic phase of the compound to be studied, previously equilibrated, were contacted with 600 µL of aqueous phase consisting of a 3 mol/L nitric acid solution spiked with 600 Bq of ^152Eu and 600 Bq of ^241Am. It was stirred vigorously by means of an oscillating shaker for 30 minutes and the phases were separated by centrifugation at 5000 rpm. 400 µL were taken from each of the phases for determining the concentration of the radionuclides ^152Eu and ^241Am. This determination was carried out by means of the high energy gamma spectrometry technique with a high-purity Ge detector (Canberra Inc.), using the 122 keV line for the determination of ^152Eu concentration and the 59.5 keV line for the determination of ^241Am concentration. The distribution coefficient was calculated by relating the concentration of each of the radionuclides in the organic phase and in the aqueous phase, according to the expression: DM = ([M]org)/([M]aq) [formula]
(§2) The distribution coefficients and the selectivity factor of each of them were determined as indicated in sections A) to C).

[3] = Hydrolytic stability, extraction capability after contact with 3 mol/L nitric acid; settings: 0.1 mol/L in n-dodecane/1-octanol (95:5)%vol; for extraction capability of Eu (III) (DEu): during the different contact time periods with 3 mol/L nitric acid
Protocol: The organic solutions of the compounds to be tested were prepared and equilibrated with 3 mol/L nitric acid, as has been indicated in sections A) and B).
Then, 700 µL of the equilibrated organic phase were put in vials of an approximate volume of 2 mL and were contacted with 700 µL of 3 mol/L nitric acid. They were stirred vigorously in an oscillating shaker for periods of 7, 15, 24, 36, 42, 50 and 66 days. After each permanent contact period with the nitric acid aqueous phase, the extraction capability of the organic solution was evaluated, taking 600 µL of the corresponding organic phase and contacting it with 600 µL of aqueous phase formed by a 3 mol/L nitric acid solution spiked with 600 Bq of ^152Eu and with 600 Bq of ^241Am. It was stirred vigorously by means of an oscillating shaker for 15 minutes. The separation of the phases was carried out by centrifugation at 5000 rpm. 400 µL of each of the phases were taken for the determination of the concentration of ^152Eu and ^241Am, as in section C).
After the permanent contact periods with the 3 mol/L nitric acid solution, the extraction capability of the organic solutions of both compounds was evaluated with 3 mol/L nitric acid solutions containing 600 Bq of ^152 Eu and 600 Bq of ^241Am.

[4] = Eu/Am selectivity factor in extraction from 3 mol/L nitric acid; settings: 0.1 mol/L in TPH/1-octanol (50:50)%vol; aqueous [HNO3] 3 mol/L
Protocol: as §1
The Eu/Am selectivity factor was calculated by relating the corresponding distribution coefficients of Eu with those of Am in the same experimental conditions: SFEu/Am = DEu /DAm [formula]
as §2

[5] = irradiated dissolved in n-dodecane/1-octanol (95:5)%vol, equilibrated with 3 mol/L nitric acid
[6] = irradiated in the absence of solvent

Row | Substance | DEu [1, 5] | Dn ([1]; up to 1000 kGy, irradiated dissolved in n-dodecane/1-octanol (95:5)%vol, equilibrated with 3 mol/L nitric acid) | DAm [2] | DEu [2] | DAm ([3]; after 42 days of permanent contact with 3 mol/L nitric acid) | extraction capability of Eu (III) (DEu) [3] | SFEu/Am [4] | DAm [1, 5] | DAm [1, 6] | DEu [1, 6] | DAm ([3]; after 66 days of permanent contact with 3 mol/L nitric acid)
1 | 2-Dioctylcarbamoylmethoxy-N-[3-[3-(2-dioctylcarbamoyl-methoxyacetylamino)propoxy]propyl]acetamide [Compound 18] | 964 | 531 | 29 | 177 | 280 | remains constant | 6.0 |  |  |  | 
2 | 2-Dioctylcarbamoylmethoxy-N-[3-[(2-dioctylcarbamoyl-methoxy-acetylamino)methyl]benzyl]acetamide [Compound 4] | 780 |  | 33 | 141 |  | remains constant | 4.3 | 180 | 540 | 1000 | 145
